Data from ChEMBL document CHEMBL4219190, “Studies on synthesis of novel pyrido[2,3-d]pyrimidine derivatives, evaluation of their antimicrobial activity and molecular docking” (Bioorg Med Chem Lett, 2018).
Converted amounts (≈) assume the structure as drawn. The source made the active and inactive calls. The rule behind the calls is not given here.

Columns and labels:
Candida albicans [1] = assay: Fungicidal activity against Candida albicans MTCC 183 incubated for 24 hrs followed by transfer of microbial suspension to Sabouraud dextrose agar plates and measured after 24 hrs post transfer; format: functional; conditions: MTCC 183, 24 h
Pichia sporocuriosa [2] = assay: Antifungal activity against Issatchenkia hanoiensis MTCC 4755 after 24 hrs by well diffusion method; format: functional; conditions: MTCC 4755, 24 h
Candida albicans [3] = assay: Antifungal activity against Candida albicans MTCC 227 after 24 hrs by well diffusion method; format: functional; conditions: MTCC 227, 24 h
Micrococcus luteus [4] = assay: Bactericidal activity against Micrococcus luteus MTCC 2470 incubated for 24 hrs followed by transfer of microbial suspension to Mueller Hinton agar plates and measured after 24 hrs post transfer; format: functional; conditions: MTCC 2470, 24 h
Candida parapsilosis [5] = assay: Fungicidal activity against Candida parapsilosis MTCC 1744 incubated for 24 hrs followed by transfer of microbial suspension to Sabouraud dextrose agar plates and measured after 24 hrs post transfer; format: functional; conditions: Lodderomyces parapsilosis, MTCC 1744, 24 h
Candida albicans [6] = assay: Antifungal activity against Candida albicans MTCC 4748 after 24 hrs by well diffusion method; format: functional; conditions: MTCC 4748, 24 h
Nakaseomyces glabratus [7] = assay: Antifungal activity against Candida glabrata MTCC 3019 after 24 hrs by well diffusion method; format: functional; conditions: MTCC 3019, 24 h
Candida albicans [8] = assay: Antifungal activity against Candida albicans MTCC 3017 after 24 hrs by well diffusion method; format: functional; conditions: MTCC 3017, 24 h
Staphylococcus aureus [9] = assay: Bactericidal activity against Staphylococcus aureus MLS16 MTCC 2940 incubated for 24 hrs followed by transfer of microbial suspension to Mueller Hinton agar plates and measured after 24 hrs post transfer; format: functional; conditions: MLS16 MTCC 2940, 24 h
Staphylococcus aureus [10] = assay: Bactericidal activity against Staphylococcus aureus MTCC 96 incubated for 24 hrs followed by transfer of microbial suspension to Mueller Hinton agar plates and measured after 24 hrs post transfer; format: functional; conditions: MTCC 96, 24 h
Raoultella planticola [11] = assay: Bactericidal activity against Klebsiella planticola MTCC 530 incubated for 24 hrs followed by transfer of microbial suspension to Mueller Hinton agar plates and measured after 24 hrs post transfer; format: functional; conditions: MTCC 530, 24 h
[Candida] aaseri [12] = Antifungal activity against Candida aaseri MTCC 1962 after 24 hrs by well diffusion method; format: functional; conditions: Yamadazyma aaseri, MTCC 1962, 24 h
Escherichia coli [13] = assay: Bactericidal activity against Escherichia coli MTCC 739 incubated for 24 hrs followed by transfer of microbial suspension to Mueller Hinton agar plates and measured after 24 hrs post transfer; format: functional; conditions: MTCC 739, 24 h
Candida albicans [14] = assay: Antifungal activity against Candida albicans MTCC 1637 after 24 hrs by well diffusion method; format: functional; conditions: MTCC 1637, 24 h
Candida albicans [15] = assay: Fungicidal activity against Candida albicans MTCC 3017 incubated for 24 hrs followed by transfer of microbial suspension to Sabouraud dextrose agar plates and measured after 24 hrs post transfer; format: functional; conditions: MTCC 3017, 24 h
Nakaseomyces glabratus [16] = assay: Fungicidal activity against Candida glabrata MTCC 3019 incubated for 24 hrs followed by transfer of microbial suspension to Sabouraud dextrose agar plates and measured after 24 hrs post transfer; format: functional; conditions: MTCC 3019, 24 h
Staphylococcus aureus [17] = assay: Antibiofilm activity against Staphylococcus aureus MTCC 96 after 24 hrs by crystal violet staining-based assay; format: functional, organism-based; conditions: Staphylococcus aureus, MTCC 96, 24 h; read-out: IC50
Candida albicans [18] = assay: Fungicidal activity against Candida albicans MTCC 854 incubated for 24 hrs followed by transfer of microbial suspension to Sabouraud dextrose agar plates and measured after 24 hrs post transfer; format: functional; conditions: MTCC 854, 24 h
Candida albicans [19] = assay: Antifungal activity against Candida albicans MTCC 183 after 24 hrs by well diffusion method; format: functional; conditions: MTCC 183, 24 h
Candida albicans [20] = assay: Fungicidal activity against Candida albicans MTCC 7315 incubated for 24 hrs followed by transfer of microbial suspension to Sabouraud dextrose agar plates and measured after 24 hrs post transfer; format: functional; conditions: MTCC 7315, 24 h
Candida albicans [21] = assay: Fungicidal activity against Candida albicans MTCC 3958 incubated for 24 hrs followed by transfer of microbial suspension to Sabouraud dextrose agar plates and measured after 24 hrs post transfer; format: functional; conditions: MTCC 3958, 24 h
Candida albicans [22] = assay: Antifungal activity against Candida albicans MTCC 854 after 24 hrs by well diffusion method; format: functional; conditions: MTCC 854, 24 h
Staphylococcus aureus [23] = assay: Antibacterial activity against Staphylococcus aureus MTCC 96 after 24 hrs by well diffusion method; format: functional; conditions: MTCC 96, 24 h
Candida albicans [24] = assay: Antifungal activity against Candida albicans MTCC 7315 after 24 hrs by well diffusion method; format: functional; conditions: MTCC 7315, 24 h
Candida albicans [25] = assay: Antifungal activity against Candida albicans MTCC 3958 after 24 hrs by well diffusion method; format: functional; conditions: MTCC 3958, 24 h
Candida albicans [26] = assay: Fungicidal activity against Candida albicans MTCC 227 incubated for 24 hrs followed by transfer of microbial suspension to Sabouraud dextrose agar plates and measured after 24 hrs post transfer; format: functional; conditions: MTCC 227, 24 h
Candida albicans [27] = assay: Fungicidal activity against Candida albicans MTCC 1637 incubated for 24 hrs followed by transfer of microbial suspension to Sabouraud dextrose agar plates and measured after 24 hrs post transfer; format: functional; conditions: MTCC 1637, 24 h
Pichia kudriavzevii [28] = assay: Fungicidal activity against Candida krusei MTCC 3020 incubated for 24 hrs followed by transfer of microbial suspension to Sabouraud dextrose agar plates and measured after 24 hrs post transfer; format: functional
Candida parapsilosis [29] = assay: Antifungal activity against Candida parapsilosis MTCC 1744 after 24 hrs by well diffusion method; format: functional; conditions: MTCC 1744, 24 h
Escherichia coli [30] = assay: Antibacterial activity against Escherichia coli MTCC 739 after 24 hrs by well diffusion method; format: functional; conditions: MTCC 739, 24 h
Pichia kudriavzevii [31] = assay: Antifungal activity against Candida krusei MTCC 3020 after 24 hrs by well diffusion method; format: functional
Staphylococcus aureus [32] = assay: Antibacterial activity against Staphylococcus aureus MLS16 MTCC 2940 after 24 hrs by well diffusion method; format: functional; conditions: MLS16 MTCC 2940, 24 h
Raoultella planticola [33] = assay: Antibiofilm activity against Klebsiella planticola MTCC 530 after 24 hrs by crystal violet staining-based assay; format: functional, organism-based; conditions: Klebsiella planticola, MTCC 530, 24 h; read-out: IC50
Candida albicans [34] = assay: Fungicidal activity against Candida albicans MTCC 4748 incubated for 24 hrs followed by transfer of microbial suspension to Sabouraud dextrose agar plates and measured after 24 hrs post transfer; format: functional; conditions: MTCC 4748, 24 h
Staphylococcus aureus [35] = assay: Antibiofilm activity against Staphylococcus aureus MLS16 MTCC 2940 after 24 hrs by crystal violet staining-based assay; format: functional, organism-based; conditions: Staphylococcus aureus, MLS16 MTCC 2940, 24 h; read-out: IC50
Bacillus subtilis [36] = assay: Bactericidal activity against Bacillus subtilis MTCC 121 incubated for 24 hrs followed by transfer of microbial suspension to Mueller Hinton agar plates and measured after 24 hrs post transfer; format: functional; conditions: MTCC 121, 24 h
Micrococcus luteus [37] = assay: Antibacterial activity against Micrococcus luteus MTCC 2470 after 24 hrs by well diffusion method; format: functional; conditions: MTCC 2470, 24 h
Pseudomonas aeruginosa [38] = assay: Antibiofilm activity against Pseudomonas aeruginosa MTCC 2453 after 24 hrs by crystal violet staining-based assay; format: functional, organism-based; conditions: Pseudomonas aeruginosa, MTCC 2453, 24 h; read-out: IC50
Pseudomonas aeruginosa [39] = assay: Bactericidal activity against Pseudomonas aeruginosa MTCC 2453 incubated for 24 hrs followed by transfer of microbial suspension to Mueller Hinton agar plates and measured after 24 hrs post transfer; format: functional; conditions: MTCC 2453, 24 h
Raoultella planticola [40] = assay: Antibacterial activity against Klebsiella planticola MTCC 530 after 24 hrs by well diffusion method; format: functional; conditions: MTCC 530, 24 h
Candida albicans [41] = assay: Fungicidal activity against Candida albicans MTCC 3018 incubated for 24 hrs followed by transfer of microbial suspension to Sabouraud dextrose agar plates and measured after 24 hrs post transfer; format: functional; conditions: MTCC 3018, 24 h
Bacillus subtilis [42] = assay: Antibacterial activity against Bacillus subtilis MTCC 121 after 24 hrs by well diffusion method; format: functional; conditions: MTCC 121, 24 h
Candida albicans [43] = assay: Antifungal activity against Candida albicans MTCC 3018 after 24 hrs by well diffusion method; format: functional; conditions: MTCC 3018, 24 h
Bacillus subtilis [44] = assay: Antibiofilm activity against Bacillus subtilis MTCC 121 after 24 hrs by crystal violet staining-based assay; format: functional, organism-based; conditions: Bacillus subtilis, MTCC 121, 24 h; read-out: IC50
[Candida] aaseri [45] = Fungicidal activity against Candida aaseri MTCC 1962 incubated for 24 hrs followed by transfer of microbial suspension to Sabouraud dextrose agar plates and measured after 24 hrs post transfer; format: functional; conditions: Yamadazyma aaseri, MTCC 1962, 24 h
Pseudomonas aeruginosa [46] = assay: Antibacterial activity against Pseudomonas aeruginosa MTCC 2453 after 24 hrs by well diffusion method; format: functional; conditions: MTCC 2453, 24 h
Pichia sporocuriosa [47] = assay: Fungicidal activity against Issatchenkia hanoiensis MTCC 4755 incubated for 24 hrs followed by transfer of microbial suspension to Sabouraud dextrose agar plates and measured after 24 hrs post transfer; format: functional; conditions: MTCC 4755, 24 h

- MIC (Pichia sporocuriosa [2]): 7.8 µg/mL (≈ 15.4 µM)
- MIC (Candida albicans [3]): 31.2 µg/mL (≈ 61.5 µM)
- MIC (Candida albicans [6]): 62.5 µg/mL (≈ 123 µM)
- MIC (Nakaseomyces glabratus [7]): 7.8 µg/mL (≈ 15.4 µM)
- MIC (Candida albicans [8]): 3.9 µg/mL (≈ 7.68 µM)
- MIC ([Candida] aaseri [12]): 15.6 µg/mL (≈ 30.7 µM)
- MIC (Candida albicans [14]): 15.6 µg/mL (≈ 30.7 µM)
- IC50 (Staphylococcus aureus [17]): 5.4 µg/mL (≈ 10.6 µM)
- MIC (Candida albicans [19]): 3.9 µg/mL (≈ 7.68 µM)
- MIC (Candida albicans [22]): 15.6 µg/mL (≈ 30.7 µM)
- MIC (Staphylococcus aureus [23]): 7.8 µg/mL (≈ 15.4 µM)
- MIC (Candida albicans [24]): 31.2 µg/mL (≈ 61.5 µM)
- MIC (Candida albicans [25]): 62.5 µg/mL (≈ 123 µM)
- MIC (Candida parapsilosis [29]): 15.6 µg/mL (≈ 30.7 µM)
- MIC (Escherichia coli [30]): 15.6 µg/mL (≈ 30.7 µM)
- MIC (Pichia kudriavzevii [31]): inactive
- MIC (Staphylococcus aureus [32]): 15.6 µg/mL (≈ 30.7 µM)
- IC50 (Staphylococcus aureus [35]): 10.8 µg/mL (≈ 21.3 µM)
- MIC (Micrococcus luteus [37]): 15.6 µg/mL (≈ 30.7 µM)
- IC50 (Pseudomonas aeruginosa [38]): 2.7 µg/mL (≈ 5.32 µM)
- MIC (Bacillus subtilis [42]): 7.8 µg/mL (≈ 15.4 µM)
- MIC (Candida albicans [43]): 31.2 µg/mL (≈ 61.5 µM)
- IC50 (Bacillus subtilis [44]): 2.7 µg/mL (≈ 5.32 µM)
- MIC (Pseudomonas aeruginosa [46]): 7.8 µg/mL (≈ 15.4 µM)
Compound: COc1ccc(-c2nc(C(=O)N3CCN(C)CC3)nc3nc(-c4ccccc4)cc(C(F)(F)F)c23)cc1
- MFC (Candida albicans [1]): 7.8 µg/mL (≈ 15.4 µM)
- MBC (Micrococcus luteus [4]): 31.2 µg/mL (≈ 61.5 µM)
- MFC (Candida parapsilosis [5]): 31.2 µg/mL (≈ 61.5 µM)
- MBC (Staphylococcus aureus [9]): 15.6 µg/mL (≈ 30.7 µM)
- MBC (Staphylococcus aureus [10]): 15.6 µg/mL (≈ 30.7 µM)
- MBC (Raoultella planticola [11]): 31.2 µg/mL (≈ 61.5 µM)
- MBC (Escherichia coli [13]): 31.2 µg/mL (≈ 61.5 µM)
- MFC (Candida albicans [15]): 7.8 µg/mL (≈ 15.4 µM)
- MFC (Nakaseomyces glabratus [16]): 15.6 µg/mL (≈ 30.7 µM)
- MFC (Candida albicans [18]): 31.2 µg/mL (≈ 61.5 µM)
- MFC (Candida albicans [20]): 62.5 µg/mL (≈ 123 µM)
- MFC (Candida albicans [21]): 62.5 µg/mL (≈ 123 µM)
- MFC (Candida albicans [26]): 31.2 µg/mL (≈ 61.5 µM)
- MFC (Candida albicans [27]): 31.2 µg/mL (≈ 61.5 µM)
- MFC (Pichia kudriavzevii [28]): inactive
- IC50 (Raoultella planticola [33]): 10.8 µg/mL (≈ 21.3 µM)
- MFC (Candida albicans [34]): 62.5 µg/mL (≈ 123 µM)
- MBC (Bacillus subtilis [36]): 15.6 µg/mL (≈ 30.7 µM)
- MBC (Pseudomonas aeruginosa [39]): 15.6 µg/mL (≈ 30.7 µM)
- MIC (Raoultella planticola [40]): 15.6 µg/mL (≈ 30.7 µM)
- MFC (Candida albicans [41]): 62.5 µg/mL (≈ 123 µM)
- MFC ([Candida] aaseri [45]): 31.2 µg/mL (≈ 61.5 µM)
- MFC (Pichia sporocuriosa [47]): 15.6 µg/mL (≈ 30.7 µM)
